One experiment relates to MEF. The experiment is described as follows: cells. The arrangement: species or system L929sAhFas or MEF; protection from TNF-induced cell death, percentage PI-positive nuclei by high-content imaging. To be noted: Mus musculus, mTNF + BV6, inhibition of induced cell death. As for the experimental part: (c,d) HT-29 and Jurkat FADD−/− cells were pretreated for 1 h with DMSO, Nec-1 or Sorafenib (concentrations as indicated) and stimulated for 6 h with 30 ng/ml hTNF, 1 μM BV6 and 30 μM zVAD (HT-29) or stimulated for 10 h with 100 ng/ml hTNF (Jurkat FADD−/−). (a-d) Data were normalized to DMSO-treated control cells and represent the mean value±S.E.M. of three independent experiments. Toxic concentrations were removed from the analysis. L929sAhFas and MEF cells were stained with Hoechst and PI and percentage PI-positive nuclei was determined using high-content image analysis (BD pathway Bioimager). For HT-29 and Jurkat FADD−/− cells, cell death was determined by PI staining and flow cytometry. […] Cell death in AML cells was determined by PI staining and flow cytometry. […] Smac mimetic BV6[34] instead of TAK1i was used as a sensitizer for testing of mouse embryonic fibroblasts (MEF) and human cell lines. […] Since Sorafenib is used to treat AML,[27] we also included two AML cell lines to investigate whether it alters the sensitivity of these cells to necroptotic stimuli (BV6 in the presence of zVAD-fmk).[34]

The subject of another experiment is L929sAhFas. Briefly: cells. The arrangement: high-content necroptosis screen, percentage PI-positive nuclei as percent of DMSO plus stimulus control. The source says:
To identify novel inhibitors or regulators of necroptosis, 500 small compounds from libraries targeting autophagy, kinases, phosphatases, proteases and redox balance were screened for their ability to block TNF-induced necroptosis in murine L929sAhFas cells. Three conditions were used to induce necroptosis in L929 cells: TNF alone, TNF+TAK1 inhibitor (TAK1i) and TNF+zVAD-fmk, a pan-caspase inhibitor. Inhibition of TAK1 or caspases sensitizes to necroptosis.[13], [32] Necroptosis, measured as the percentage of PI-positive nuclei normalized to the plate-specific DMSO control, was determined for each compound (Supplementary Figure 1A). […] After compound treatment, L929sAhFas (a) or L929 (b) cells were stimulated with mTNF (T), mTNF+Tak1i (TiT) or mTNF+zVAD (zVT) (Supplementary Figure 1A and B). (a) Cell death percentage (% PI-positive nuclei) or cell loss was calculated as percent of control (DMSO+stimulus). […] (b) Cell loss (luminescence-based readout for ATP) was calculated as percent of control (DMSO+stimulus). […] In stimulated conditions, % PI-positive nuclei was determined as % of DMSO control. Data represent mean values±S.E.M. of two independent experiments. Cells were stained with Hoechst and PI and percentage PI-positive nuclei was determined using high-content image analysis (BD pathway Bioimager). (d) L929sAhFas cells were treated with Sorafenib (concentration as indicated) for 24 h. Then, stimulus was removed, 50 cells/condition seeded and colonies counted with crystal violet staining after 10 days incubation. […] Schemes of workflow screening assays in L929 cell lines. (A) Scheme of the workflow of a high-content screening assay on L929sAhFas cells using mTNF (T) and mTNF+Tak1i ((5Z)-7-Oxozeaenol) (TiT) to induce necroptotic cell death. Nec-1 and zVAD-fmk were used as protective and sensitizing benchmarks, respectively, on all plates. (B) Scheme of the workflow of a CellTiter-Glo luminescent cell viability screening assay on L929 cells using mTNF+zVAD (zVT) to induce necroptotic cell death. Supplementary Figure S2. Z’ calculation for cell death screening assays in L929 cells. (A) Z’ calculation for cell death screening assay (Fig. 1A) in mTNF-stimulated L929sAhFas cells. (B) Z’ calculation for cell death screening assay (Fig. 1A) in L929sAhFas cells stimulated with mTNF + Taki.

Where a name gives a salt, the structure may show the parent alone. Read-outs that look alike come from different tables or passages of the source.

Data on 1 molecule can be found in article PMC5520944 (Cell Death & Disease, 2017).

For the molecule `CNC(=O)c1cc(Oc2ccc(NC(=O)Nc3ccc(Cl)c(C(F)(F)F)c3)cc2)ccn1` [Sorafenib tosylate], in the experiment on MEF, the IC50 (in general, the concentration at which inhibition is half-maximal) was 2200 ± 470 nM. Besides, the activity at 10 µM in the experiment with L929sAhFas (read-out: cell death TNF (POC)) amounted to 41.5%; in the experiment with L929sAhFas (read-out: cell death TNF/Taki (POC)), 11.8%.
